Where a name gives a salt, the structure may show the parent alone. Read-outs that look alike come from different tables or passages of the source.
What was measured:
[1] = system: solid tumor cancers (colorectal, pancreatic, ovarian, and prostate); settings: cited from earlier work
MMP-1 = molecular target: T1, MMP-1 (Homo sapiens, UniProt P03956); assay: MMP-1 inhibition (in vitro Ki); format: biochemical
T1 construct: made in house; host or cells: MMP-1-transfected HT-1080 cells (spent media)
T1 sequence (P03956 100-469): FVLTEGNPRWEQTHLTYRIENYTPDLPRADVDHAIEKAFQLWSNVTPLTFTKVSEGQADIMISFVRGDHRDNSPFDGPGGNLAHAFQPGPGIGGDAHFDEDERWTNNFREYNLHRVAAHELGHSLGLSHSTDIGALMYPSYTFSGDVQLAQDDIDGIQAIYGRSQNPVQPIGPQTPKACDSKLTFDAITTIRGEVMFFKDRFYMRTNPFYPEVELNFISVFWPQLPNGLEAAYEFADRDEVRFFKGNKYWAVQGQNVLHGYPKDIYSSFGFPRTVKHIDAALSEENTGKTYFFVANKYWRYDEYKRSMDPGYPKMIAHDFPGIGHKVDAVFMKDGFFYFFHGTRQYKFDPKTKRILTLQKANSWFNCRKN

MMP-2 = molecular target: T2, MMP-2 (Homo sapiens, UniProt P08253); assay: MMP-2 inhibition (in vitro Ki); format: biochemical
T2 construct: made in house; host or cells: MMP-2-transfected p2AHT2 cells
T2 sequence (P08253 110-660): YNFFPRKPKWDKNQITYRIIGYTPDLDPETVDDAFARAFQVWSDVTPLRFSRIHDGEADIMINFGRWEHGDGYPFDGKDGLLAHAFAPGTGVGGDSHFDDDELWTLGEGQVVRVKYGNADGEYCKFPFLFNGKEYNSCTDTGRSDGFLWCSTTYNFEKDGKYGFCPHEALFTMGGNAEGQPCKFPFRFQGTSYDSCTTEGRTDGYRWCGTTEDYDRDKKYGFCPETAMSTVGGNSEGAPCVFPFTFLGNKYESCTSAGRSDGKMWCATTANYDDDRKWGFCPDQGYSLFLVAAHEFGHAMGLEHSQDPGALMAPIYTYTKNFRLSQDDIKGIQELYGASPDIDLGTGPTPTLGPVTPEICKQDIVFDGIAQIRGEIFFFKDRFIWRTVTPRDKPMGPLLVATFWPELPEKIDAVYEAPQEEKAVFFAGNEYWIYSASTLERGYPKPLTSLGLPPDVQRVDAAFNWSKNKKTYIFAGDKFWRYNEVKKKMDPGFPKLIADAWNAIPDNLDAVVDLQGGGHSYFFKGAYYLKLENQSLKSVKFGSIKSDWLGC

MMP-9 = molecular target: T3, MMP-9 (Homo sapiens, UniProt P14780); assay: MMP-9 inhibition (in vitro Ki); format: biochemical
T3 construct: made in house; host or cells: MMP-9-transfected HT1080 cells (spent media)
T3 sequence (P14780 107-707 limits assumed): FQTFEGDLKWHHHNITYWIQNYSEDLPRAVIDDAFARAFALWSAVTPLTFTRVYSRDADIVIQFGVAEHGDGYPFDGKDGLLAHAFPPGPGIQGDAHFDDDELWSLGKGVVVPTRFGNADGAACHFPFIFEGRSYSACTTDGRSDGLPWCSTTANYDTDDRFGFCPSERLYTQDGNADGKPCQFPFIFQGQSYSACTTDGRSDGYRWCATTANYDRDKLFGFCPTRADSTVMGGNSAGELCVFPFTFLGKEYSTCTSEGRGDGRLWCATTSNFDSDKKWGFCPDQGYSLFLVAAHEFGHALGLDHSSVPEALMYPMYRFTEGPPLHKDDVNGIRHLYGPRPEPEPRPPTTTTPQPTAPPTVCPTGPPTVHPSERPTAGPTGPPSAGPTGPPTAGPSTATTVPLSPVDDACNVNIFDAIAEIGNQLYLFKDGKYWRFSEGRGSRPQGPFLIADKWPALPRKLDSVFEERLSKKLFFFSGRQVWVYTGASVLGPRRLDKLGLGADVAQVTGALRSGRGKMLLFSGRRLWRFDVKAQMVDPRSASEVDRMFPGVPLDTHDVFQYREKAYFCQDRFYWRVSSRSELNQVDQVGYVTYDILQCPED

MMP-13 = molecular target: T4, MMP-13 (Homo sapiens, UniProt P45452); assay: MMP-13 inhibition (in vitro Ki); format: biochemical
T4 construct: made in house; host or cells: baculovirus / insect cells

MMP-14 = molecular target: T5, MMP-14 (Homo sapiens, UniProt P50281); assay: MMP-14 inhibition (in vitro Ki); format: biochemical
T5 construct: The catalytic domain enzyme was expressed in E. coli inclusion bodies, solubilized in urea; made in house

[2] = Table 9, read-out: MMP-1 Ki (IC-50)
[3] = Table 9, read-out: MMP-2 Ki (IC-50)
[4] = Table 9, read-out: MMP-9 Ki (IC-50)
[5] = Table 9, read-out: MMP-13 Ki (IC-50)
[6] = Table 9, read-out: MMP-14 Ki (IC-50)

Row | Ki (MMP-1; [2]) [nM] | Ki (MMP-2; [3]) [nM] | Ki (MMP-9; [4]) [nM] | Ki (MMP-13; [5]) [nM] | Ki (MMP-14; [6]) [µM] | Ki (MMP-1; Table 8, read-out: MMP-1 Ki) [nM] | Ki (MMP-2; Table 8, read-out: MMP-2 Ki) [nM] | Ki (MMP-9; Table 8, read-out: MMP-9 Ki) [nM] | Ki (MMP-13; Table 8, read-out: MMP-13 Ki) [nM] | Ki (MMP-14; Table 8, read-out: MMP-14 Ki) [µM] | Structure (SMILES) | most common drug-related toxicity ([1]; clinical trials in patients) | effect on cancer-specific antigens used as surrogate markers for biological activity ([1]; patients with advanced, rapidly progressive, treatment-refractory solid tumor cancers)
1 | 516 | 23.8 | 307 | 8.19 | 7.54 |  |  |  |  |  | CNC(=O)CCCCC1CCN(S(=O)(=O)C2(C(=O)NO)CCOCC2)CC1 [Example A86] |  | 
2 | 3910 | 237 | 1100 | 2.01 | > 10 |  |  |  |  |  | O=C(CCCCC1CCN(S(=O)(=O)C2(C(=O)NO)CCOCC2)CC1)N1CCCCC1 [Example A92] |  | 
3 |  |  |  |  |  | 1500 | 5.97 | 17.5 | 0.52 | 3.61 | O=C(NO)C1(S(=O)(=O)N2CCC(CCCCOCCC(F)(F)F)CC2)CCOCC1 [Example A46, 4-{4-[4-(3,3,3-trifluoro-propoxy)-butyl]-piperidine-1-sulfonyl}-tetrahydro-pyran-4-carboxylic Acid Hydroxyamide] |  | 
4 | > 10000 | > 10000 | > 10000 | 154 | > 10 |  |  |  |  |  | O=C(CCCCN1CCN(S(=O)(=O)C2(C(=O)NO)CCOCC2)CC1)N1CCCCC1 [Example A119] |  | 
5 | 2780 | 38 | 50.7 | 2.01 | 5.36 |  |  |  |  |  | O=C(CCCCC1CCN(S(=O)(=O)C2(C(=O)NO)CCOCC2)CC1)N1CC2CCCCC2C1 (stereo not shown) [Example A88] |  | 

The remaining lines, values behind:

Row | Structure (SMILES) | Ki (MMP-1; [2]) [nM] | Ki (MMP-2; [3]) [nM] | Ki (MMP-9; [4]) [nM] | Ki (MMP-13; [5]) [nM] | Ki (MMP-14; [6]) [µM] | Ki (MMP-1; Table 8, read-out: MMP-1 Ki) [nM] | Ki (MMP-2; Table 8, read-out: MMP-2 Ki) [nM] | Ki (MMP-9; Table 8, read-out: MMP-9 Ki) [nM] | Ki (MMP-13; Table 8, read-out: MMP-13 Ki) [nM] | Ki (MMP-14; Table 8, read-out: MMP-14 Ki) [µM] | most common drug-related toxicity ([1]; clinical trials in patients) | effect on cancer-specific antigens used as surrogate markers for biological activity ([1]; patients with advanced, rapidly progressive, treatment-refractory solid tumor cancers)
6 | CNC(=O)[C@@H](NC(=O)[C@H](CC(C)C)[C@H](O)C(=O)NO)C(C)(C)C [Marimastat] |  |  |  |  |  |  |  |  |  |  | musculoskeletal pain and stiffness | dose-related reduction in the rise of cancer-specific antigens
7 | O=C(NO)C1(S(=O)(=O)N2CCC(c3ccc(CCC(F)(F)C(F)(F)F)cn3)CC2)CCN(c2ccc(Cl)cc2)CC1 [Example A158] | > 10000 | 14.6 | 13.4 | 8.98 | > 10 |  |  |  |  |  |  | 
8 | O=C(NO)C1(S(=O)(=O)N2CCN(c3ccc(CCCC(F)(F)F)cc3)CC2)CCN(CC(F)(F)F)CC1 [Example A183] | > 10000 | 2.06 | 307 | 1.07 | > 10 |  |  |  |  |  |  | 
9 | O=C(/C=C/C=C/C1CCN(S(=O)(=O)C2(C(=O)NO)CCOCC2)CC1)N1CCc2ccccc21 [Example A80] | 5450 | 239 | 1890 | 0.389 | > 10 |  |  |  |  |  |  | 
10 | CN(C(=O)CCCC1CCN(S(=O)(=O)C2(C(=O)NO)CCOCC2)CC1)c1ccccc1 [Example A143] | > 10000 | 686 | 389 | 50.8 | > 10 |  |  |  |  |  |  | 
11 | O=C(NO)C1(S(=O)(=O)N2CCN(c3ccc(CCCC(F)(F)F)c(F)c3)CC2)CCN(C2CC2)CC1 [Example A62, 1-cyclopropyl-4-({4-[3-fluoro-4-(4,4,4-trifluorobutyl)phenyl]piperazin-1-yl}sulfonyl)-N-hydroxypiperidine-4-carboxamide Hydrochloride] |  |  |  |  |  | > 10000 | 0.73 | 1.74 | 0.56 | 9.05 |  | 
12 | O=C(NO)C1(S(=O)(=O)N2CCC(c3ccc(CCC(F)(F)C(F)(F)F)cn3)CC2)CC=CC1 [Example A101] | 721 | 0.9 | 0.33 | 0.17 | 2.64 |  |  |  |  |  |  | 
13 | CSCCOc1ccc(C2CCN(S(=O)(=O)C3(C(=O)NO)CCOCC3)CC2)nc1 [Example A191] | 1710 | 0.31 | 0.27 | 0.13 | 0.47 |  |  |  |  |  |  | 
14 | O=C(NO)C1(S(=O)(=O)N2CCC(c3ccc(CCC(F)(F)C(F)(F)F)cn3)CC2)CCC1 [Example A126] | 2750 | 0.27 | 0.14 | 0.06 | 1.3 |  |  |  |  |  |  | 

From patent publication US20050209278A1, “Piperidinyl- and piperazinyl-sulfonylmethyl hydroxamic acids and their use as protease inhibitors” (priority 2002, published 2005)
